Test [1] deals with T1, hVAChT A334F (Homo sapiens, UniProt Q16572, A334F).
T1 sequence (Q16572 1-532 A334F): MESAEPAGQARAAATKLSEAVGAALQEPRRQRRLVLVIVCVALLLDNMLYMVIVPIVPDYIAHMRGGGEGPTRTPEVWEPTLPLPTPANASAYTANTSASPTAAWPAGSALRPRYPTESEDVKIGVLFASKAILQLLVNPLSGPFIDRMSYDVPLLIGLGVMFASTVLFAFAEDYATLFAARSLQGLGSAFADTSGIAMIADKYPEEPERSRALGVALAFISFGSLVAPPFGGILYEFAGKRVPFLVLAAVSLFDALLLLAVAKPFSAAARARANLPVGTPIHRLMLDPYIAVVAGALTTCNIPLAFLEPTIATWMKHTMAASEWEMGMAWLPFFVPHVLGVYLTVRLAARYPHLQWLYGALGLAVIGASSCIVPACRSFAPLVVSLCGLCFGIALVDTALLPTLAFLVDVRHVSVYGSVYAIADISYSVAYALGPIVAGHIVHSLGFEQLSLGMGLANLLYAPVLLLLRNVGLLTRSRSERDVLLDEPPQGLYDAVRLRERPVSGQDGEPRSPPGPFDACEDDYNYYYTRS
As to the kind of experiment: [3H]vesamicol saturation binding. The conditions noted are these: pH 7.4.

The target in test [2] is T2, hVAChT M316A (Homo sapiens, UniProt Q16572, M316A).
T2 sequence (Q16572 1-532 M316A): T1 sequence (Q16572 1-532 A334F) with M316A, F334A
As to the kind of experiment: [3H]vesamicol saturation binding. As to conditions: pH 7.4.

For test [3], the target named is T3, hVAChT A321F (Homo sapiens, UniProt Q16572, A321F).
T3 sequence (Q16572 1-532 A321F): T1 sequence (Q16572 1-532 A334F) with A321F, F334A
As to the kind of experiment: ACh equilibrium binding by competition against [3H]vesamicol.

Test [4] has as its target T4, hVAChT C391A (Homo sapiens, UniProt Q16572, C391A).
T4 sequence (Q16572 1-532 C391A): T1 sequence (Q16572 1-532 A334F) with F334A, C391A
Put plainly: [3H]ACh transport. It counts as biochemical.

Test [5] deals with T5, hVAChT wild-type (Homo sapiens, UniProt Q16572).
T5 sequence (Q16572 1-532): T1 sequence (Q16572 1-532 A334F) with F334A
As to the kind of experiment: [3H]ACh transport. As to conditions: WT hVAChT, pH 7.4. The test is classed as biochemical.

In test [6] the target is T3, hVAChT A321F. Put plainly: [3H]ACh transport. It counts as biochemical.

Numbering of substitutions follows the chain as printed.

As for `O[C@@H]1CCCC[C@H]1N1CCC(c2ccccc2)CC1` (racemic) [vesamicol, ( )-trans-2-(4-phenylpiperidino)cyclohexanol], the entries for the “Bmax, maximal specific [3H]vesamicol binding (VAChT expression level)” value in test [1] and in test [2] were 13 ± 1 pmol/mg and 38 ± 2 pmol/mg, respectively.
Take `CC(=O)OCC[N+](C)(C)C` [ACh, acetylcholine]: the Kd in test [3] was 15 ± 2 mM. Further, in test [3] (A321F hVAChT, pH 7.4), the “FHA, fraction of the ACh sites that have high affinity” value came out at 0.90 ± 0.06. The “ACh transport faster than wild-type” value in test [4] (C391A hVAChT vs wild-type) is listed as “about 2 times”. Further, the “Vmax/Bmax, ACh transport normalized to Bmax” value stood at 15 ± 2 min⁻¹ in test [4] (C391A hVAChT, pH 7.4); 6.8 ± 0.5 min⁻¹ in test [5]; 6.0 ± 0.5 min⁻¹ in test [6] (pH 7.4). The Km in test [4] (read-out: KM, Michaelis-Menten constant for ACh transport, C391A hVAChT, pH 7.4) turned out to be 1800 ± 300 µM; in test [5] (read-out: KM, Michaelis-Menten constant for ACh transport), 950 ± 200 µM; in test [6] (read-out: KM, Michaelis-Menten constant for ACh transport, pH 7.4), 350 ± 100 µM.
